One assay has as its system Tg2576 mice. The assay is described as follows: Contextual Fear Conditioning in Tg2576 mice. The format is in vivo, mouse. Particulars: 20 mg/kg i.p. before CFC training, retention 24 h later. The procedure: 7 months old Tg2576 mice and WT mice were treated with either CPP-SCR or CPP-RB5 (20 mg/kg, i.p.) before Contextual Fear Conditioning (CFC) training and tested for memory retention 24 h later. Contextual Fear (CF) memory impairment in Tg2576 mice is fully rescued by RB5 treatment. Values are reported as % of time spent freezing. Data are expressed as Mean±SEM. *p<0.05**p<0.01.
Mice protocol: after 120 sec of exploration, mice received 5 foot shocks (0.7 mA, 2-s duration, separated by 60-s intervals) delivered through the grid floor. Context Fear Memory was assessed 24 h later by returning mice for 5 min to the conditioning chamber and not delivering a foot shock.
For all protocols, freezing behavior served as a measure of conditioned fear to the context during the conditioning and retrieval tests of the behavioural procedures. This was video-recorded and quantified by an observer blind to the experimental group. One unit of freezing was defined as a continuous absence of movement other than that required for respiration in 1 s sampled every 10 s.

In assay [1] the test system is ERK-dependent nuclear signalling (histone H3) and cytoplasmic signalling (ribosomal protein S6). Nature of the assay: Ex vivo acute slices, glutamate stimulation, immunofluorescence for phospho-acetyl histone H3 and phospho-S6. Particulars: 50 μM peptide, glutamate 100 μM. The format is cell-based, mouse. The procedure:
(§1) a) RB5 peptide selectively promoted activation of ERK2. Acute striatal slices either pre-treated with Scramble (SCR) or RB5 peptide (50 μM) and then stimulated 10 minutes with glutamate (GLU) (100 μM) or vehicle were analysed in Western blot (left panel) and probed with anti phospho ERK antibodies (p44^ERK1 and p42^ERK2) and anti ERK1/2 antibody. GAPDH was used as loading control. […] No changes were detected in the total ERK1 and ERK2 levels. GAPDH was used as loading control. […] Mice injected with a single dose of CPP-SCR or CPP-RB5 peptides (20 mg/kg, i.p.) were rapidly perfused 1 h later and brains were dissected and further analysed for IHC and immunofluorescence. Representative photomicrographs of pERK1/2, pMSK, pAch3, pELK1 and c-Fos expression in the striatum. […] Two-way ANOVA Bonferroni post hoc comparison: one black star, p<0.05, two black stars, p<0.01, one white star, p<0.001. p) Dose response curve of RB5 peptide for ERK activation. 200 μm thick striatal slices were freshly prepared from 2-month old mice and transferred into a perfusion chamber for 1 h at 32° C. Slices were pre-treated with different doses of RB5 or scrambled control. After 1 h, slices for each dose was fixed in PFA 4% for 15 min. 18 μm cryo-sections were processed for immunohistochemistry with anti-phospho p44/p42 MAP kinase. Neuronal quantification was performed with ImageJ software by counting the number of phospho-ERK positive cells in each slice. The level of activation is expressed on the Y-axis as arbitrary units (AU). Doses are reported in a logarithmic scale (Log 10) on the X-axis. The EC50 was calculated using GraphPad Prism software.
Adult mice were anesthetized and decapitated. […]
Slides were placed in a humid chamber and 1 h after blocking in 5% normal goat serum and 0.1% Triton X-100 solution, they were incubated overnight at 4° C. with one of the following primary antibodies: anti-phospho-S6 ribosomal protein (Ser235/236) (1:200 Cell Signalling Technology, Danvers, Mass.), anti-phospho-S6 ribosomal protein (Ser240/244) (1:200 Cell Signalling Technology, Danvers, Mass.), anti-phospho (Ser10)-acetylated (Lys14) histone H3 (1:1000 (Millipore, Billerica, Mass.) or Cleaved Caspase 3 (1:200 Cell Signalling Technology, Danvers, Mass.) and anti-NeuN (1:1000 Millipore, Billerica, Mass.) followed by appropriate secondary antibodies. […] Neuronal quantification is performed with ImageJ software by counting phospho-S6 immunoreactive or pH3 neurons among NeuN positive neurons in each slide (n=10 for each experimental group). […]

Assay [2] has as its system ERK signalling in the striatum. The assay is described as follows: Single in vivo injection, IHC/immunofluorescence of nuclear and cytoplasmic ERK markers in striatum. On the set-up: species or system mouse. Particulars: 1 h. The procedure: as §1
At the indicated times after drug treatments, animals were anaesthetised and transcardially perfused with ice-cold buffered 4% PFA. Brains were extracted, post-fixed overnight and transferred to 30% buffered sucrose for 24 h. Coronal sections were cut to a 35 μm thickness on a freezing microtome and stored in a cryoprotective solution at −20° C. until processing for immunohistochemistry or immunofluorescence.
1 h after CPP-RB5/CPP-SCR (20 mg/kg, i.p.) mice were anaesthetized and perfused via intracardiac infusion of ice-cold 4% PFA. Brains were rapidly extracted, post-fixed overnight and transferred to 25% buffered sucrose for 24 h. Coronal sections were cut at 30 μm thickness on a freezing microtome and stored in a cryoprotective solution at −20° C. until they were processed for immunohistochemistry. Free-floating sections were incubated with primary antibodies against anti-phospho-p44/42 MAP kinase (Thr202/Tyr204), anti-phospho-Elk-1 (Ser383), anti-phospho-Kv4.2 (Thr607)-R, anti-phospho-MSK-1, anti-phospho-MEK-1, c-Fos and Tyrosine Hydroxylase overnight at 4° C. Sections were then incubated with biotinylated goat anti-rabbit IgG (1:200, Vector Labs) for 2 h. Detection of the bound antibodies was carried out using a standard peroxidase-based method (ABC-kit, Vectastain, Vector Labs), followed by a DAB and H2O2 solution. Quantification of positive neurons were counted from striatum in 2-3 sections per mouse, bilaterally. Sample areas were visualized under a 20× objective in a Leica DM IRB microscope by a blind investigator to condition and counts per region were averaged across the sections using the ImageJ software.

As for `CSCC[C@H](NC(=O)[C@H](CCC(=O)O)NC(=O)[C@@H](NC(=O)[C@H](CCC(=O)O)NC(=O)CNC(=O)[C@@H]1CCCN1C(=O)[C@@H](NC(=O)CNC(=O)[C@@H]1CCCN1C(=O)CNC(=O)[C@@H](NC(=O)CNC(=O)[C@H](CCC(=O)O)NC(=O)[C@@H](NC(=O)[C@H](CCCNC(=N)N)NC(=O)[C@H](CCCNC(=N)N)NC(=O)[C@@H]1CCCN1C(=O)[C@H](CCC(=O)O)NC(=O)CNC(=O)CNC(=O)CNC(=O)CNC(=O)CNC(=O)[C@H](CCC(N)=O)NC(=O)[C@@H]1CCCN1C(=O)[C@@H]1CCCN1C(=O)[C@H](CCCNC(=N)N)NC(=O)[C@H](CCCNC(=N)N)NC(=O)[C@H](CCCNC(=N)N)NC(=O)[C@H](CCC(N)=O)NC(=O)[C@H](CCCNC(=N)N)NC(=O)[C@H](CCCNC(=N)N)NC(=O)[C@H](CCCCN)NC(=O)[C@H](CCCCN)NC(=O)[C@H](CCCNC(=N)N)NC(=O)CNC(C)=O)[C@@H](C)O)C(C)C)C(C)C)C(C)C)C(=O)N[C@H](C(=O)N[C@@H](CCCCN)C(=O)NCC(=O)N[C@@H](CCC(N)=O)C(=O)N1CCC[C@H]1C(=O)N[C@@H](Cc1ccccc1)C(=O)N[C@@H](CC(=O)O)C(=O)N[C@@H](C(=O)O)C(C)C)C(C)C` [RB5], the “Contextual Fear (CF) memory impairment (% of time spent freezing)” value with Tg2576 mice is given as “fully rescued”. Moreover, in assay [1], the “phospho (Ser10)-acetyl(Lys14)-histone-H3, nuclear ERK signalling” value is listed as “promotes” and the “phospho-S6 ribosomal protein, cytosolic/cytoplasmic signalling” value is reported as “not activated”. For the same compound, in assay [2] (20 mg/kg i.p.), the “nuclear ERK-dependent signalling and gene transcription (pMSK, pAcH3, pELK, c-Fos)” value is on record as “selective activation”; the “phosphorylation of the cytoplasmic markers (pMEK-1, pVGK+, pS6)” value is on record as “did not influence”; the “striatal ERK phosphorylation (pERK1/2)” value was “enhanced”.

Turning to “GRKKRRQRRRPPQGGGGGEPRRTEGVGPGVPGEVEMVKGQPFDV (listed as Homo sapiens) [CPP-RB5]”, the “Contextual Fear (CF) memory impairment (% of time spent freezing)” value in the assay on Tg2576 mice is reported as “rescued already present memory impairments in aged Tg2576 mice back to WT levels”. For the same compound, in assay [1], the “phospho (Ser10)-acetyl(Lys14)-histone-H3, nuclear ERK signalling” value is “massive intra-nuclear MAPKs substrate activation” and the “phospho-S6 ribosomal protein, cytosolic/cytoplasmic signalling” value was “no effect”. For the same compound, in assay [2] (20 mg/kg i.p.), the “nuclear ERK-dependent signalling and gene transcription (pMSK, pAcH3, pELK, c-Fos)” value is recorded as “significantly increased”; the “striatal ERK phosphorylation (pERK1/2)” value is reported as “significantly enhanced”. The “cytoplasmic signalling measured by ribosomal S6 phosphorylation” value in assay [2] (20 mg/kg) was “at a lesser extent reduced”. Further, in assay [2] (20 mg/kg, vs CPP-SCR), the “phosphorylation of voltage-gated potassium channel (pKv4.2) and MEK-1” value is reported as “comparable between the two treatments”.

(Values after patent US11471502B2, “Neuroprotective peptide” (UNIVERSITY COLLEGE CARDIFF C[…], priority 2017, dated 2022).)
